Tests used:
TGF-β = TGF-β gene expression in eWAT; type: in vivo; details: HFD-fed mice; FIG. 4C
Source text: Since obesity has been linked to low-grade inflammation in the adipose tissue, we consequently observed increased TGF-β expression in the epididymal fat pads of the HFD-fed mice.

FGF21 = assay: Serum FGF21 (ELISA) and FGF21 gene expression; type: in vivo; details: HFD-fed mice
Source text: Many of the beneficial metabolic effect are linked to FGF21, and FGF21 itself may further enhance fatty acid oxidation (Xu J, et al. Diabetes (2009) 58(1):250-259; Li H, et al. Diabetes (2012) 61(4):797-806). We, therefore, also measured serum levels of FGF21 using a commercially available ELISA kit. […] Accordingly, in an aspect of the invention, Compound 14-3 treatment is utilized to increase fatty acid oxidation, resulting in decreased fat content in iWAT and eWAT, and decreased body weight in a subject.

leptin = assay: Serum leptin (ELISA); type: in vivo; details: HFD-fed mice, FIG. 7C
Source text: Since crosstalk between leptin and FGF21 has been proposed in connection with the anti-obesity effects of FGF21 and a suppressive effect of exogenous FGF21 on circulating leptin levels has been previously observed in non-human primates, we also measured serum leptin levels using a commercially available ELISA kit. As expected, changes in fat content in the Compound 14-3-treated HFD group were followed by decrease in serum levels of fat-derived ‘satiety’ hormone leptin, indicating improved leptin resistance resulting from treatment using a compound of the invention (FIG. 7C). Thus, lower circulation levels of leptin were most likely due to drug-induced reductions in the masses of fat depos. This finding can explain decrease in POMC gene expression in the hypothalamus, as leptin is capable to directly modulate hypothalamic melanocortin system by changing the activity of POMC neurons.

liver = assay: Liver size, appearance and liver/body weight ratio (NAFLD) in HFD-fed mice; type: in vivo
Source text: The enlarged liver appeared pale yellow consistent with fatty metamorphosis. […] The beneficial effect on liver size and appearance was consistent as a part of overall improvement in metabolic properties after Compound 14-3 treatment.

[1] = Intraperitoneal insulin tolerance test (ITT); type: in vivo; details: HFD-fed mice, 5th week of treatment, vs vehicle
Experimental: The described beneficial changes in body composition improved all aspects of the metabolic syndrome, including the underlying insulin resistance. Therefore, to fully characterize this animal model, we also assessed insulin signaling on live animals on the 5th week of Compound 14-3-treatment by conducting oral glucose tolerance test (OGTT, FIGS. 9A-C) and intraperitoneal insulin tolerance test (ITT, FIGS. 9D-E).
Both the OGTT and ITT tests were carried out on mice that have been starved for 6 hours before the procedure to eliminate the effect of the last meal on the blood glucose level. In both tests, we measured fasting glucose levels 30 min before the start of the assay to define baseline conditions. In the OGTT assay, the mice had been gavaged with 2 g/kg glucose, dissolved in water. After administration of the glucose, blood glucose level was measured via tail vein nicking using a commercially available glucometer. […] Additionally, the blood glucose level measured at 120 min after gavage was used to describe the overall glucose tolerance of the mice (FIG. 9C).
In the ITT test, we have intraperitoneally administered […] human recombinant insulin (Humulin N, Eli Lilly, Cambridge, MA) at the start of the assay and blood glucose was similarly measured for 120 min. […]

human HepG2 liver cells = assay: Intracellular triglyceride content in HepG2 cells with palmitoleic acid (biochemical kit); type: cell-based; details: HepG2, 1.6 mM palmitoleic acid, 48 hours, 0.1 μM compound, vs DMSO; FIG. 10A
Experimental: A series of in vitro experiments were first carried out with various human hepatocyte cultures. For example, human HepG2 liver cells were incubated with 1.6 mM palmitoleic acid in EMEM medium for 48 hours in the presence of 0.1 μM Compound 14-3 or control vehicle, DMSO. After 48 hours, cells were collected and the intracellular triglyceride content was measured by a biochemical kit (Biovision, Mountain View, CA) as described in Derdak et al. J Hepatol. 2013; 58(4):785-91.

CCN(CC)CCNC(=O)c1c(C)[nH]c(/C=C2\C(=O)Nc3ccc(-c4csc(-c5ccccc5)n4)cc32)c1C [Compound 14-3]
TGF-β abundance (gene expression) in eWAT (TGF-β): decreased | serum FGF21 levels (FGF21; ELISA, FIG. 7A): increased | FGF21 gene expression (FGF21; FIG. 7B): increased | serum leptin levels (leptin): decrease | NAFLD (liver; FIG. 8A): marked improvement | size of the liver (liver; FIG. 8A): markedly decreased | liver/body weight ratio (liver; FIG. 8B): lower | blood glucose levels in response to insulin (ITT) ([1]; i.p. insulin, 120 min, FIG. 9D): steeper drop | area under curve during ITT ([1]; FIG. 9E): smaller | palmitoleic acid-induced increase of intracellular triglyceride content (human HepG2 liver cells): markedly suppressed

— patent US12390460B2, “Treatment for obesity” (1GLOBE BIOMEDICAL CO., LTD., priority 2018, dated 2025)
